Experimental data as given in patent EP4722219A1 (Gan & Lee Pharmaceuticals Co., Ltd., priority 2023, dated 2024).

Columns and labels:
Type in all cases: cell-based
[1] = target: T1, SMARCA2 (Homo sapiens, UniProt P51531); experiment: SMARCA2 degradation in SW1573 cells (Western blot); design: endogenous in cells; host or cells: SW1573; conditions: 24 hours
Procedure: (§1) Test Example 10 Degradation rate (%) of SMARCA2/4 by the PROTAC compounds of the present invention in HeLa cells and SW1573 cells
SW1573 cells were seeded at 2x10^5Cells/well in a 6-well plate. 2 mL of EMEM medium supplemented with 10% FBS was added to each well and was incubated overnight to allow cell attachment. The next day, 1 µL of 160 µM and 1 µL of 2 µM compound were added to the corresponding wells for treatment, resulting in final compound concentrations of 80 nM and 1 nM, respectively, and a final DMSO concentration of 0.05%. The cells were returned to the incubator and incubated for another 24 hours.
(§2) After 24 hours, cells were harvested, the medium was aspirated, and the cells were rinsed once with 1 mL/well PBS. The PBS was aspirated, and 40 µL/well of RIPA lysis buffer containing protease inhibitors was added. After lysis and centrifugation, total protein extracts were obtained, and protein concentration in the extracts was determined by BCA assay. Protein electrophoresis was performed by SDS-PAGE, followed by constant voltage electrophoresis at 100 V for 60 minutes and the protein was then transferred to a PVDF membrane. The PVDF membrane was blocked in 5% skim milk powder for 1 hour at room temperature. Primary antibodies (SMARCA2: CST#11966S, SMARCA4: CST#49360S, GAPDH: CST#5174S) were added and incubated overnight at 4°C. After washing the membrane, secondary antibodies were added and incubated at room temperature for 1 hour (protected from the light). After washing, the membrane was exposed using an Odyssey luminometer. Grayscale analysis of bands was performed using Image Studio software.
(§3) The degradation rate (%) of SMARCA2/4 by the PROTAC compounds of the present invention in HeLa cells and SW1573 cells is shown in Table 10. Table 10 Degradation rate of SMARCA2/4 by PROTAC compounds of the present invention in HeLa cells and SW1573 cells (%)

[2] = target: T2, SMARCA4 (Homo sapiens, UniProt P51532); experiment: SMARCA4 degradation in SW1573 cells (Western blot); design: endogenous in cells; host or cells: SW1573; conditions: 24 hours; for Dmax at 0.001 µM / Dmax at 0.08 µM: read-out: Degradation rate of SMARCA4 in SW1573 cells (%)
Procedure: SW1573 cells were seeded at 2x10^5Cells/well in a 6-well plate. 2 mL of EMEM medium supplemented with 10% FBS was added to each well and was incubated overnight to allow cell attachment. […] The cells were returned to the incubator and incubated for another 24 hours.
as §2, with “Primary antibodies (SMARCA2: CST#11966S, SMARCA4: CST#49360S, GAPDH: CST#5174S) were added and incubated overnight at 4°C.” left out
as §3

[3] = target: T2, SMARCA4; experiment: SMARCA4 degradation in HeLa cells (Western blot); design: endogenous in cells; conditions: 4 hours, read-out: Degradation rate of SMARCA4 in HeLa cells (%); for Dmax at 0.001 µM: 1 nM; for Dmax at 0.08 µM: 80 nM
Procedure: HeLa cells were seeded at 1.2 x 10^5 cells/well in a 6-well plate. 2 mL of EMEM medium supplemented with 10% FBS was added to each well and the culture dish was incubated overnight to allow the cells to adhere. […] The cells were returned to the incubator and incubated for another 4 hours.
as §2, with “After 4 hours, cells” for “After 24 hours, cells”, “harvested, the culture medium was” for “harvested, the medium was”, “room temperature. […] After washing” for “room temperature. Primary antibodies (SMARCA2: CST#11966S, SMARCA4: CST#49360S, GAPDH: CST#5174S) were added and incubated overnight at 4°C. After washing”
as §3

[4] = target: T1, SMARCA2; experiment: SMARCA2 degradation in HeLa cells (Western blot); design: endogenous in cells; conditions: 4 hours
Procedure: as §1
HeLa cells were seeded at 1.2 x 10^5 cells/well in a 6-well plate. 2 mL of EMEM medium supplemented with 10% FBS was added to each well and the culture dish was incubated overnight to allow the cells to adhere. The next day, 1 µL of 160 µM and 1 µL of 2 µM compound were added to the corresponding wells, resulting in final compound concentrations of 80 nM and 1 nM, respectively, and a final DMSO concentration of 0.05%. The cells were returned to the incubator and incubated for another 4 hours.
as §2, with “After 4 hours, cells” for “After 24 hours, cells”, “harvested, the culture medium was” for “harvested, the medium was”
as §3

T2 sequence (P51532 whole entry): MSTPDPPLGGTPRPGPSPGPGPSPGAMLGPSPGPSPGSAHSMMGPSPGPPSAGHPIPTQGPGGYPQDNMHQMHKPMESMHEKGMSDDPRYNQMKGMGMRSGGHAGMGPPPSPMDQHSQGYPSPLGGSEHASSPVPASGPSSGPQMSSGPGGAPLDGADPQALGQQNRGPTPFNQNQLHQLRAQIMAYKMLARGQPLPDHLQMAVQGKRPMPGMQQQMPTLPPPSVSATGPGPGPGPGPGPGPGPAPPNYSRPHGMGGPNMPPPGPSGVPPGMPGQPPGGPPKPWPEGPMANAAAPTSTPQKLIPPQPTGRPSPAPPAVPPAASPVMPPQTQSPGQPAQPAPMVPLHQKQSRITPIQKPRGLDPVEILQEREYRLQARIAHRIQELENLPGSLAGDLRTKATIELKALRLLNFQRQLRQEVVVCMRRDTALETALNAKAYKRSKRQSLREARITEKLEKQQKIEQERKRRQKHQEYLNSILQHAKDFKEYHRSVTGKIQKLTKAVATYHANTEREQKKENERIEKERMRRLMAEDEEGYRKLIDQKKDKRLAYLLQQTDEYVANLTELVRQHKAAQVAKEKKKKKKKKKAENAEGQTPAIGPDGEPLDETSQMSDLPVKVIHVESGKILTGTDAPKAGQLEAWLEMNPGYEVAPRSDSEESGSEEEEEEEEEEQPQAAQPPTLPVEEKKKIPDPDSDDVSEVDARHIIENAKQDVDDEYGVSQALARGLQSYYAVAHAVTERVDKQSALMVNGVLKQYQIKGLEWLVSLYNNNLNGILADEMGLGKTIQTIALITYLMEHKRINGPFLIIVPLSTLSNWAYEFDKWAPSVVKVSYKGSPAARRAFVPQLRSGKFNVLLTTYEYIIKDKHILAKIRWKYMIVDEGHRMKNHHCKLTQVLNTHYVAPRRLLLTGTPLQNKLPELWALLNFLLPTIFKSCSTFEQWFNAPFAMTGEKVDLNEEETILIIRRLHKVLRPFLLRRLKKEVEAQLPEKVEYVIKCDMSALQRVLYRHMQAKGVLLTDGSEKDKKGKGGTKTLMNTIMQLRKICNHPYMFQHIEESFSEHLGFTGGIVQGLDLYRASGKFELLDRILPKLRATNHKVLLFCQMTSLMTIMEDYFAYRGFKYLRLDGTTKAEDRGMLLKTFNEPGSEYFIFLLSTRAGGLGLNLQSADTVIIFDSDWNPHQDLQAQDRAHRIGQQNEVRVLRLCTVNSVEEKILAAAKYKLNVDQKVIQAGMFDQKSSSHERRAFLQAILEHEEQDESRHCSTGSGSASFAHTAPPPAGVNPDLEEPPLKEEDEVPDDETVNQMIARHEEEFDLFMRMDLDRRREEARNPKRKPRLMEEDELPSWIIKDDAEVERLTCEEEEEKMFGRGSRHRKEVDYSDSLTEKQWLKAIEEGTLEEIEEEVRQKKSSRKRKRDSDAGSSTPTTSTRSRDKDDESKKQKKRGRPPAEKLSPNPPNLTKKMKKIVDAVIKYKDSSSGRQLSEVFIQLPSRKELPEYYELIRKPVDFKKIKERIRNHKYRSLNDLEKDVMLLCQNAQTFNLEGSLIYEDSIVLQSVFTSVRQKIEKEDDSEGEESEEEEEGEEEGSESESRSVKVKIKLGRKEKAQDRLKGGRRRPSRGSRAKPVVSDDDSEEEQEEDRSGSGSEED
T1 sequence (P51531 whole entry): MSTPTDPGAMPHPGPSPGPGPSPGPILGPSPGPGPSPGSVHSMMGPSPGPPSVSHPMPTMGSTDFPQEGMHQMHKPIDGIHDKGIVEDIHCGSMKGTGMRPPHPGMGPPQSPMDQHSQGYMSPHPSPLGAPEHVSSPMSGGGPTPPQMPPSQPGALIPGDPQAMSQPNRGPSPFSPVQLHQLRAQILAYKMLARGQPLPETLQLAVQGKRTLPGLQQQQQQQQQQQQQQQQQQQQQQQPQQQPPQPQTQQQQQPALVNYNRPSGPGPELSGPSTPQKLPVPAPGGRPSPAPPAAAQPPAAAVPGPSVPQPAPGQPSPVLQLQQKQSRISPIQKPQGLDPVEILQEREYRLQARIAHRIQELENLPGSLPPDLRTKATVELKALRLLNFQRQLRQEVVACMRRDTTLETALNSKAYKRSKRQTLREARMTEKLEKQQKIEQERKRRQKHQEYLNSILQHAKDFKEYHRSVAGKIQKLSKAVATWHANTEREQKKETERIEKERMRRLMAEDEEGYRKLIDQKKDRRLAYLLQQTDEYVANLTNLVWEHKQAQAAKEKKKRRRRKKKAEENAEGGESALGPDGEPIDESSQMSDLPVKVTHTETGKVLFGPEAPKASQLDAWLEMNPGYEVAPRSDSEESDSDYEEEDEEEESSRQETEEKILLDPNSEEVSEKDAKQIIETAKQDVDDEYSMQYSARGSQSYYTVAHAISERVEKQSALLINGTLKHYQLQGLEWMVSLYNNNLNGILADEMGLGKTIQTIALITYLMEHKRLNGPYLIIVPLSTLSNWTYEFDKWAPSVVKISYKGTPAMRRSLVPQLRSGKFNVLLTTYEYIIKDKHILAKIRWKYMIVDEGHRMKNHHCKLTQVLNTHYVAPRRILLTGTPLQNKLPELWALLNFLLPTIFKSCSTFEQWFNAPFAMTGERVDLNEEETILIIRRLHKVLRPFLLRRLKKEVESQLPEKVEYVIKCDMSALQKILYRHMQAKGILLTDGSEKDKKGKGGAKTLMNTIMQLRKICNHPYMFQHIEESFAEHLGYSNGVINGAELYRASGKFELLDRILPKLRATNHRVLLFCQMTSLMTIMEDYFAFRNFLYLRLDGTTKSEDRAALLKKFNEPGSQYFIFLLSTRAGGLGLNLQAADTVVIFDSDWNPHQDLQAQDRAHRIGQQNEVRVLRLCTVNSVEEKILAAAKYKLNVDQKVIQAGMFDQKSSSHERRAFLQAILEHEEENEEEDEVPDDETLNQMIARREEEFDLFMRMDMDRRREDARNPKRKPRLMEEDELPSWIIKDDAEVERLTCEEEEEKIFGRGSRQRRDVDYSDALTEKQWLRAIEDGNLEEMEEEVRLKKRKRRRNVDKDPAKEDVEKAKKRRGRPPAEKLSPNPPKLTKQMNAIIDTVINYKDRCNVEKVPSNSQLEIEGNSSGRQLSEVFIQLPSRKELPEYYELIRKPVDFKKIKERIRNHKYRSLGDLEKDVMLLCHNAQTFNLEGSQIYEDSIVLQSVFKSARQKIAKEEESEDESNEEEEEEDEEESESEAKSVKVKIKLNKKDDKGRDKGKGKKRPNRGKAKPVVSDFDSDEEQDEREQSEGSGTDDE

SMILES	Degradation rate of SMARCA2 in SW1573 cells (%) ([1]; 1 nM)	Degradation rate of SMARCA2 in SW1573 cells (%) ([1]; 80 nM)	Dmax at 0.001 µM ([2]; 1 nM) [%]	Dmax at 0.08 µM ([2]; 80 nM) [%]	Dmax at 0.001 µM [3] [%]	Dmax at 0.08 µM [3] [%]	Degradation rate of SMARCA2 in HeLa cells (%) ([4]; 1 nM)	Degradation rate of SMARCA2 in HeLa cells (%) ([4]; 80 nM)	Degradation rate of SMARCA4 in SW1573 cells (%) ([2]; 1 nM)	Degradation rate of SMARCA4 in SW1573 cells (%) ([2]; 80 nM)
Nc1nnc(-c2ccccc2O)cc1C#CC1CCC2(CC1)CC(N1CCC3(CC1)CCC1(CC3)COc3c1ccc1c3CN(C3CCC(=O)NC3=O)C1=O)C2 (stereo not shown) [SM-P-2]	98	100	94	100	92	99	95	98	–	–
Nc1nnc(-c2ccccc2O)cc1C#CC1CCC2(CC1)CC(N1CCN3c4cc(F)c(C(=O)N[C@H]5CCC(=O)NC5=O)cc4OC[C@H]3C1)C2 (stereo partly drawn) [SM-P-6, (R)-3-(7-((3-amino-6-(2-hydroxyphenyl)pyridazin-4-yl)ethynyl)spiro[3.5]nonan-2-yl)-n-((S)-2,6-dioxopiperidin-3-yl)-9-fluoro-1,2,3,4,4a,5-hexahydrobenzo[b]pyrazi no[1,2-d][1,4]oxazine-8-carboxamide]	20	34	–	–	–	–	–	–	-30	-41
Nc1nnc(-c2ccccc2O)cc1C#CC1CCC2(CC1)CC(N1CCN3c4cc(NC5CCC(=O)NC5=O)ccc4OCC[C@H]3C1)C2 (stereo partly shown) [SM-P-17]	12	72	-18	12	–	–	–	–	–	–
CN(C(=O)c1ccc2c(c1)OC[C@H]1CN(C3CC4(CCC(C#Cc5cc(-c6ccccc6O)nnc5N)CC4)C3)CCN21)[C@H]1CCC(=O)NC1=O (stereo partly shown) [SM-P-18]	16	25	-32	-34	–	–	–	–	–	–
Nc1nnc(-c2ccccc2O)cc1C#CC1CCC2(CC1)CC(N1CCN3c4ccc(C(=O)N[C@H]5CCC(=O)NC5=O)c(F)c4OC[C@H]3C1)C2 (stereo partly shown) [SM-P-22]	-9	28	14	4	–	–	–	–	–	–
Cc1ncsc1-c1ccc([C@H](C)NC(=O)[C@@H]2C[C@@H](O)CN2C(=O)[C@@H](NC(=O)[C@H]2CC[C@H](CN3CC4(CCC(n5cc(-c6cc(-c7ccccc7O)nnc6N)cn5)CC4)C3)CC2)C(C)(C)C)cc1 [SMD-3040, (2S,4R)-1-((S)-2-((1R,4S)-4-((7-(4-(3-amino-6-(2-hydroxyphenyl)pyridazin-4-yl)-1H-pyrazol-1-yl)-2-azaspiro[3.5]nonan-2-yl)methyl)cyclohexane-1-carboxamido)-3,3-dimethylbutanoyl)-4-hydroxy-N-((S)-1-(4-(4-methylthiazol-5-yl)phenyl)ethyl)pyrrolidine-2-carboxamide, reference compound]	89	99	–	–	–	–	–	–	21	86

The next lines start with the values.

Degradation rate of SMARCA2 in SW1573 cells (%) ([1]; 1 nM)	Degradation rate of SMARCA2 in SW1573 cells (%) ([1]; 80 nM)	Dmax at 0.001 µM ([2]; 1 nM) [%]	Dmax at 0.08 µM ([2]; 80 nM) [%]	Dmax at 0.001 µM [3] [%]	Dmax at 0.08 µM [3] [%]	Degradation rate of SMARCA2 in HeLa cells (%) ([4]; 1 nM)	Degradation rate of SMARCA2 in HeLa cells (%) ([4]; 80 nM)	Degradation rate of SMARCA4 in SW1573 cells (%) ([2]; 1 nM)	Degradation rate of SMARCA4 in SW1573 cells (%) ([2]; 80 nM)	SMILES
72	96	43	97	85	98	90	100	–	–	Cn1c(=O)n(C2CCC(=O)NC2=O)c2cc3c(cc21)OC1(CC3)CCN(C2CC3(CCC(C#Cc4cc(-c5ccccc5O)nnc4N)CC3)C2)CC1 (stereo not shown) [SM-P-1, 3-(1'-(7-((3-amino-6-(2-hydroxyphenyl)pyridazin-4-yl)ethynyl)spiro[3.5]nonan-2-yl)-3-methyl-2-oxo-2,3,7,8-tetrahydro-1H-spiro[chromeno[6,7-d]imidazole-6,4'-piperidin]-1-yl)piperidine-2,6-dione]
1	66	-29	39	-52	28	7	68	–	–	Nc1nnc(-c2ccccc2O)cc1C#CC1CCC2(CC1)CC(N1CCC3(CCc4cc(C(=O)N[C@H]5CCC(=O)NC5=O)c(F)cc4O3)CC1)C2 (stereo partly shown) [SM-P-7]
3	7	-8	-5	-7	21	11	15	–	–	Nc1nnc(-c2ccccc2O)cc1C#CC1CCC2(CC1)CC(N1CC3(CCc4cc(F)c(C(=O)N[C@H]5CCC(=O)NC5=O)cc4O3)C1)C2 (stereo partly shown) [SM-P-9]
32	32	28	5	17	24	6	14	–	–	Nc1nnc(-c2ccccc2O)cc1C#CC1CCC2(CC1)CC(N1CCC3(CCc4cc(F)c(C(=O)N[C@H]5CCC(=O)NC5=O)cc4O3)CC1)C2 (stereo partly shown) [SM-P-12]
38	95	-14	93	–	–	–	–	–	–	Nc1nnc(-c2ccccc2O)cc1C#CC1CCC2(CC1)CC(N1CCC3(CC1)COc1cc(NC4CCC(=O)NC4=O)ccc1C3)C2 (stereo not shown) [SM-P-23, 3-((1'-(7-((3-amino-6-(2-hydroxyphenyl)pyridazin-4-yl)ethynyl)spiro[3.5]nonan-2-yl)spiro[chromane-3,4'-piperidin]-7-yl)amino)piperidine-2,6-dione]
